In patent US12071624B2, “Antisense oligonucleotide targeting ARL4C molecule, and nucleic acid drug using antisense oligonucleotide” (OSAKA UNIVERSITY, priority 2018, dated 2024):
[AmNA] = 2',4'-bridged nucleic acid with N-methyl amide bridge (AmNA); d = 2'-deoxy (DNA)

Columns and labels:
[1] = test system: neurolysin (NLN) mRNA; test: Off-target gene mRNA by real-time PCR in HLE cells (NLN); format: cell-based, human; details: HLE cells transfected at 25 nM
Protocol: Potential off-target genes in ARL4C ASO (hARL4C ASO-1316-AmNA [15-mer] (ARL4C ASO-1316) and hARL4C-3223-AmNA [19-mer] (ARL4C ASO-3223)) were identified by using database “Human Genomic plus Transcript (Human G+T)” (Build 2.7.1) as well as basic local alignment search tools (BLAST+programs) using MegaBlast algorithm.
(§1) Cell migration assays and quantitative real-time PCR analyses were performed according to the methods reported by Fujii S et al. (Oncogene 2015; 34: 4834-44).
Four genes of neurolysin (NLN), sapiens F-box and leucine-rich repeat protein 19 (FBXL19), keratin-associated protein 15-1 (KRTAP15-1), and sialic acid binding Ig-like lectin 6 (SIGLEC6) were identified as candidates for off-target genes of ASO-1316 and ASO-3223 by in silico analysis. HLE cells were transfected with ASO-1316 and ASO-3223 at 25 nM each, and mRNA amounts of NLN and FBXL19 were measured by real-time PCR; the results are shown in (d) of FIG. 3. […] In addition, KRTAP15-1 and SIGLEC6 were only slightly expressed in the HLE cells (data not shown).

[2] = test system: HLE cells; test: Primary liver tumor model, HLE cells transplanted into mouse liver; format: in vivo; details: for HLE tumorigenesis in the liver: 50 μg/body subcutaneously twice a week from day 0, 29 days after transplantation
Protocol: Pellets of HLE cells (1×10^7 cells) were suspended in 100 μl of Matrigel matrix high concentration (BD Biosciences, San Jose, CA, USA) and were injected into the livers of 8-week-old male nude mice (BALB/cAJcl-nu/nu, CLEA Japan, Inc.) under anesthesia (day 0). From day 0, ASO (50 μg/body; about 2.5 mg/kg) was subcutaneously administered twice a week. Mice were euthanized 29 days after the HLE cell transplantation, and tumors were recovered and subjected to histological analysis.
In a primary liver tumor model in which HLE cells were directly transplanted into the liver, influences of the subcutaneous administration of ARL4C ASO (ASO-1316 and ASO-3223) on liver tumors was examined.
In experiments in the primary liver tumor model, Matrigel containing HEL cells at a high concentration was injected into the liver of a mouse (day 0), and control ASO, ASO-1316, and ASO-3223 were subcutaneously administered on and after day 0, at a frequency of twice a week. The tumor formed in the liver was observed when 29 days had elapsed since the transplantation; the result is shown in (a) of FIG. 8. In addition, when 29 days had elapsed since the transplantation, the tumor formed in the liver was immunostained with an anti-ARL4C antibody and an anti-PIK3CD antibody, the result of which is shown in (b) of FIG. 8, and the tumor was immunostained with an anti-Ki-67 antibody, the result of which is shown in (c) of FIG. 8.

[3] = test system: HCT116/Luc cells; test: Metastatic tumor model, HCT116/Luc cells transplanted into spleen with liver metastasis; format: in vivo, mouse
Protocol: HCT116/Luc cells (2.5×10^5 cells) were suspended in 100 μl of phosphate buffer solution (PBS), and were injected into the spleens of 8-week-old male nude mice (BALB/cAJcl-nu/nu, CLEA Japan, Inc.) under anesthesia. After 19 days had elapsed since the transplantation, ASO (50 μg/body; about 2.5 mg/kg) was subcutaneously administered twice a week. Mice were euthanized 47 days after the HCT116/Luc cell transplantation and were subjected to histological analysis.
Tumor growth analysis was performed by recording bioluminescence images at a frequency of once a week, in the following manner: VivoGlo luciferin (30 mg/ml) was administered intraperitoneally, and 10 minutes after the administration of VivoGlo luciferin, recording was carried out using an IVIS imaging system (Xenogen Corp., Alameda, CA, USA).
In a metastatic tumor model in which HCT116 cells were transplanted into the spleen and the tumor was caused to metastasize to the liver, influences of the subcutaneous administration of ARL4C ASO (ASO-1316 and ASO-3223) on the liver tumor was examined.
In an experiment in the metastatic tumor model, HCT116/Luc cells were injected into the spleens (day 0), luciferase signals were detected in the livers 19 days after the injection; on and after this day, control ASO, ASO-1316, and ASO-3223 were subcutaneously administered at a frequency of twice a week. When 19, 35 and 47 days had elapsed, the fluorescence of luciferase emitted from the liver tumors was observed, and when 47 days had elapsed, fluorescence intensities of luciferase emitted from the liver tumors were quantified with software of IVIS/Kodak; the results are shown in (a) of FIG. 10. […] In addition, when 47 days had elapsed since the transplantation of HCT116/Luc cells, the tumors formed in the livers were observed, and the tumors formed in the livers were immunostained with an anti-ARL4C antibody; the results are shown in (b) of FIG. 10. The tumors formed in the livers were immunostained with an anti-Ki-67 antibody when 47 days had elapsed since the transplantation of HCT116/Luc cells; the results are shown in (c) of FIG. 10.

[4] = test system: HCT116 cells; test: Cell migration assay in HCT116 cells; format: cell-based; details: HCT116 cells transfected at 25 nM
Protocol: (§2) HLE cells, HCT116 cells, and A549 cells were transfected with 25 to 50 nM ASO and 10 to 20 nM siRNA using Lipofectamine 3000 (Invitrogen, Carlsbad, CA, USA) or RNAiMAX (Invitrogen). Transfected cells were used in the experiments 36 to 48 hours after the end of the transfection.
as §1
In addition, HCT116 cells were transfected with control ASO, ASO-1316 and ASO-3223 at 25 nM, and a cell migration assay was carried out; the results are shown in (e) of FIG. 3.

[5] = test system: HLE cells; test: Cell proliferation assay (CyQUANT NF) in HLE cells; format: cell-based; details: HLE cells transfected with ASO at 25 nM
Protocol: as §2
The cell proliferation assays were performed using the CyQUANT NF Cell Proliferation Assay Kits (Thermo Fisher Scientific), in the way recommended by the manufacturer.
HLE cells were transfected with control ASO, ASO-1316 and ASO-3223 at 25 nM and a proliferation assay was performed; the results of the assay are shown in (e) of FIG. 4.
HLE cells were transfected with control siRNA and PIK3CD siRNA (siRNA against PIK3CD) at 20 nM, and a proliferation assay was performed; the results are shown in (e) of FIG. 5. In addition, an anti-phosphorylated AKT antibody and an anti-AKT antibody as probes were caused to act on cell lysates of HLE cells transfected with control siRNA and PIK3CD siRNA; the results are shown in FIG. 5 (f). HLE cells were transfected with control siRNA and PIK3CD siRNA (siRNA against PIK3CD) at 20 nM and the PIK3CD mRNA amount was measured by real-time PCR; the results are shown in (c) of FIG. 7.

[6] = subcutaneous twice a week, day 29

Substance | NLN mRNA amount (off-target) [1] | HLE tumorigenesis in the liver [2] | tumor size as compared with the control ASO ([2]; 50 μg/body subcutaneously twice a week, day 29) | expression of ARL4C in tumors formed in the liver (immunostaining) [2, 6] | expression of PIK3CD in tumors formed in the liver (immunostaining) [2, 6] | histological damage or cell death in the non-tumor area of the liver [2, 6] | number of Ki-67-positive cells in liver tumors [2, 6] | growth of liver tumors (luciferase) ([3]; 50 μg/body subcutaneously twice a week from day 19, until day 47) | ARL4C expression level in liver tumor (immunostaining) ([3]; day 47) | number of Ki-67 positive cells in liver tumor ([3]; day 47) | cell migration [4] | cell proliferation [5] | antitumor effect in vivo ([2]; primary liver tumor model) | antitumor effect in the metastatic tumor model ([3]; subcutaneous twice a week from day 19)
ASO-1316: 15-mer AmNA/phosphorothioate ASO targeting ARL4C, base sequence SEQ ID NO: 1 gcatacctcaggtaa; Table 1 SEQ ID NO 13 (antisense GCATACCTCAGGTAA; AmNA and phosphorothioate modified, pattern not given here) | did not significantly affect the expression | able to suppress the HLE tumorigenesis | reduce the tumor size by half | suppress the expression of ARL4C and PIK3CD | suppress the expression of ARL4C and PIK3CD | did not induce histological damage or cell death | reduce the number of Ki-67-positive cells | the growth of the tumors until 47 days after the injection could be suppressed | decreased ARL4C expression levels | decreased numbers of Ki-67 positive cells | suppress the migration of HCT116 cells | inhibit HLE cells from proliferating | – | –
ASO-3223: 19-mer ARL4C ASO of Table 1, SEQ ID NO 55 (antisense NNNGGTTACAGTATTTNNC; sugars from the 5' end [AmNA]3 d13 [AmNA]2 d1, backbone, methylation of C and the base at N not given here; further chemistry not fully specified) | did not significantly affect the expression | almost no influence | – | almost no influence | almost no influence | – | almost no influence | – | – | – | suppress the migration of HCT116 cells | inhibit HLE cells from proliferating | no antitumor effect was observed | did not exert an antitumor effect
